# In the Kinase Knowledgebase extract (Sharma et al. 2016):
# Molecular target: EGFR (Hamster) (UniProt P00533)
# Conditions: er22, dose or concentration not given here
# Sequence of EGFR (Hamster) (P00533 whole entry, looked up): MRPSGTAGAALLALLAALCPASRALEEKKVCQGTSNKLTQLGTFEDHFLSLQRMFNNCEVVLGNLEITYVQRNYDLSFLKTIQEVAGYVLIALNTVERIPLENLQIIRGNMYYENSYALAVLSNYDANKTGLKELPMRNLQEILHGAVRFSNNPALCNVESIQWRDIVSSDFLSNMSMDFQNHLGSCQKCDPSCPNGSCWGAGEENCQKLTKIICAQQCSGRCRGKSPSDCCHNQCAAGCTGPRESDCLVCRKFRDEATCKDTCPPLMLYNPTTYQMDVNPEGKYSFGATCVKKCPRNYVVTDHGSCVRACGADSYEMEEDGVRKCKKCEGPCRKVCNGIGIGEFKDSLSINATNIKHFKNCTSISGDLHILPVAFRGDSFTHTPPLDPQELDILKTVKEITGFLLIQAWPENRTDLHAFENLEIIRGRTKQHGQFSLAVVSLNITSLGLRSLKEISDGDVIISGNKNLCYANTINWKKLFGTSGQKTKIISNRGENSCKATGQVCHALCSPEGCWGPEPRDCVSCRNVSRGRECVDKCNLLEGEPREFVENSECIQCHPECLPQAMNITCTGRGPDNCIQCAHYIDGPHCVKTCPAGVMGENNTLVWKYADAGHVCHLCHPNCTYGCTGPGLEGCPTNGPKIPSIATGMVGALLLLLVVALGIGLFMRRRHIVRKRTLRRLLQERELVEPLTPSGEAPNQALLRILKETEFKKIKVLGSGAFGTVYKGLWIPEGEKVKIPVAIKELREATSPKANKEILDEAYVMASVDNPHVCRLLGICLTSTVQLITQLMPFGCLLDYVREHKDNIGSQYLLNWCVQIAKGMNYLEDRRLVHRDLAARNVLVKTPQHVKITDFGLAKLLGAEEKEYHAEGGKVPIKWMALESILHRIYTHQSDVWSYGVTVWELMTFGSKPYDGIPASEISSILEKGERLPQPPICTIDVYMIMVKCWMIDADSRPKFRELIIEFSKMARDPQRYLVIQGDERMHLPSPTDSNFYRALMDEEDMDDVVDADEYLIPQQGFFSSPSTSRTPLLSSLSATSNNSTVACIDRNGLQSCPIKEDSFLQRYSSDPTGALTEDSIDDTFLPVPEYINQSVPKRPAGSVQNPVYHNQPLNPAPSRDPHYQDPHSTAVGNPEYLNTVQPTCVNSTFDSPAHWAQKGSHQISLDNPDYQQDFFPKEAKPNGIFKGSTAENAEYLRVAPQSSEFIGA
row,Compound,inhibition
1,COC(=O)c1ccc(-c2cc(O)cc(C(C)(C)C)c2)cc1,0%
2,O=C(NCc1ccccc1)c1ccc(-c2cccc(-c3ccccc3)c2O)cc1,0%
3,CC(C)(C)c1ccc(-c2ccc(C(=O)O)cc2)c(O)c1,0%
4,COC(=O)c1ccc(-c2ccc(C(C)(C)C)cc2O)cc1,0%

# Molecular target: EGFR (UniProt P00533)
# Conditions: concentration not given here
# Sequence of EGFR (P00533 whole entry, looked up): as above
row,Compound,inhibition
1,O=C(NCc1ccccc1)c1ccc(-c2cccc(-c3ccccc3)c2O)cc1,0%
2,CC(C)(C)c1cc(O)cc(-c2ccc(CO)cc2)c1,0%
3,CC(C)(C)c1ccc(-c2ccc(C(=O)O)cc2)c(O)c1,0%

# Results, then the compound that gave them:
row,inhibition,Compound
1,14%,COC(=O)c1ccc(-c2ccc(-c3ccccc3)cc2O)cc1
2,0%,COCOc1cc(-c2ccccc2)ccc1-c1ccc(C(=O)OCC(C)CC(C)(C)C)cc1 (centres undefined)
3,0%,COCOc1cc(C(C)(C)C)ccc1-c1ccc(C(=O)OC)cc1
4,0%,COCOc1cc(-c2ccccc2)ccc1-c1ccc(C(=O)NCc2ccccc2)cc1
5,0%,O=C(NCc1ccccc1)c1ccc(-c2ccc(-c3ccccc3)cc2O)cc1
6,0%,COCOc1cc(C(C)(C)C)ccc1-c1ccc(C(=O)NCc2ccccc2)cc1
7,0%,CC(C)(C)c1cc(O)cc(-c2ccc(C(=O)NCc3ccccc3)cc2)c1
